In US9918915B2, “Personal care compositions providing enhanced cooling sensation” (THE PROCTER & GAMBLE COMPANY, priority 2007, dated 2018):
One block for each compound: values may come before it.

Experiments:
[1] = molecular target: human TRPM8 (Homo sapiens, UniProt Q7Z2W7); assay: FLIPR intracellular calcium flux (Fluo-4) in HEK cells stably transfected with human TRPM8; settings: for % Change from G-180 value: pre-treatment with 100 uM test compound + 6.25 uM G-180 vs 6.25 uM G-180 alone, calcium fluorescence; for Average Fluorescence (n = 3): HEK cells with human TRPM8, Fluo-4
[2] = tested on: panelists; assay: Sensory evaluation of cooling sensation after brushing with coolant dentifrice followed by aqueous rinse with or without calcium; assay type: in vivo, human; design: key to Cooling Sensation Score: 0 = no cooling, 60 = intense cooling; 7.5 = definite cooling; settings: 0-60 scale
Experimental: Sensory evaluation studies of coolant activity were conducted using a methodology patterned after the techniques described in M. C. Meilgaard, et al., Sensory Evaluation Techniques, 4th Ed. (2007). In one study, a panel of 11 trained sensory experts evaluated cooling sensation experienced after brushing with a dentifrice containing coolant(s) followed by rinsing with an aqueous rinse containing a calcium ion source. Panelists brushed teeth with 1.5 grams of a test dentifrice (containing coolant) or control (no coolant) and then expectorated. After brush expectoration, panelists evaluated cooling intensity, assigning a number between 0 (no cooling) to 60 (intense cooling). Panelists then rinsed mouth with 15 ml. of an aqueous rinse (with or without calcium) and expectorated. After rinse expectoration, panelists evaluated cooling intensity according to the same 0 to 60 scale. Evaluations were conducted at 5, 15, 30, 45, 60 minute, etc. time points. At each evaluation, panelists were instructed to breathe in through pursed lips and evaluate overall cooling sensation. In this test, a numerical score of 7.5 indicates meaningful or definite cooling.

[3] = pre-treatment with 100 uM test compound for 30 minutes, then 6.25 uM G-180
[4] = 1000 ppm coolant in paste, rinse Ca+2 0 ppm, 0 min.
[5] = 1000 ppm coolant in paste, rinse Ca+2 0 ppm, 5 min.
[6] = 1000 ppm coolant in paste, rinse Ca+2 0 ppm, 15 min.
[7] = 1000 ppm coolant in paste, rinse Ca+2 0 ppm, 30 min.
[8] = 1000 ppm coolant in paste, rinse Ca+2 0 ppm, 45 min.
[9] = 1000 ppm coolant in paste, rinse Ca+2 0 ppm, 60 min.

Sequence of human TRPM8 (Q7Z2W7 whole entry): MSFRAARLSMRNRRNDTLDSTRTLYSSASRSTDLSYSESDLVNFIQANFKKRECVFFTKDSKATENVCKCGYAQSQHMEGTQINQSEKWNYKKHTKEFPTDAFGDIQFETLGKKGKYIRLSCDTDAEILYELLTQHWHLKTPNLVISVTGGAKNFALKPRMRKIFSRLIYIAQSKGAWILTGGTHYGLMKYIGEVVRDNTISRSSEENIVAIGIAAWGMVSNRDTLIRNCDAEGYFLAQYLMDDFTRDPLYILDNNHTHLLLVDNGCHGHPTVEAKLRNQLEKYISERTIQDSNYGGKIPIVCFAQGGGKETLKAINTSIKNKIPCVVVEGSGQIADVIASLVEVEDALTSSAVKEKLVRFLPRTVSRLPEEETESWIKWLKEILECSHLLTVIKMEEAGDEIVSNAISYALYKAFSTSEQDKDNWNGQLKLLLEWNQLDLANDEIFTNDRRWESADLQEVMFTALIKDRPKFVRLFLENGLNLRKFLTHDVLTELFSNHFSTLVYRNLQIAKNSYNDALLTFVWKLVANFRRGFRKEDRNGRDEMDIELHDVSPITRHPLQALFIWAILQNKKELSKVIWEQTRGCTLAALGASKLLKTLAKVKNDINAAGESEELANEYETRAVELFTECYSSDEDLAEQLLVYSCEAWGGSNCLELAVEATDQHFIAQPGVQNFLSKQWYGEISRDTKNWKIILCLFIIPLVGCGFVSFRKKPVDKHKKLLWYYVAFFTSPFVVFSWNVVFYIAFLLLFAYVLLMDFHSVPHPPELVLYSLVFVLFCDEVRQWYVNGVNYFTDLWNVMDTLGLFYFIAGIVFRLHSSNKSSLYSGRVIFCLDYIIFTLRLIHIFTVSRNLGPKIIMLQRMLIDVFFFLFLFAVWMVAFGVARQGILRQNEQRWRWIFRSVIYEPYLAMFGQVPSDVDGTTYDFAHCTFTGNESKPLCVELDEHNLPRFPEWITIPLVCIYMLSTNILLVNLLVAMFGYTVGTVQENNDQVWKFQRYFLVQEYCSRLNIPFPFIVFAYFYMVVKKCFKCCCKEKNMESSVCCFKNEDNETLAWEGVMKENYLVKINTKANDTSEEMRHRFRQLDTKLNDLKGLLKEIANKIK

% Change from G-180 value [1]: 3.22% | Average Fluorescence (n = 3) [1, 3]: 18075.77
Structure (SMILES): O=P([O-])(O)OP(=O)([O-])O.[Na+].[Na+] [Sodium acid pyrophosphate]

Average Fluorescence (n = 3) ([1]; 100 uM test compound alone (direct effect on TRPM8)): 129.38 | % Change from G-180 value [1]: 23.36% | % Change from G-180 value ([1]; listed as Phytic Acid): 21.20% | % Change from G-180 value ([1]; listed as phytic acid): 23.36% | Average Fluorescence (n = 3) [1, 3]: 18382.62 | Average Fluorescence (n = 3) ([1]; pre-treatment with 100 uM test compound for 30 minutes, then 6.25 uM G-180, listed as Phytic Acid): 21178.86 | Modulation of the G-180 activity at TRPM8 ([1]; separate experiments using the same protocol, 100 uM + 6.25 uM G-180): positive modulation was confirmed
Structure (SMILES): O=P(O)(O)O[C@H]1[C@H](OP(=O)(O)O)[C@@H](OP(=O)(O)O)[C@H](OP(=O)(O)O)[C@@H](OP(=O)(O)O)[C@H]1OP(=O)(O)O [Phytic acid, myo-inositol 1,2,3,4,5,6-hexakis (dihydrogen phosphate)]

Structure (SMILES): CCNC(=O)C1CC(C)CCC1C(C)C (stereo not drawn) [WS-3, N-ethyl-ρ-menthan-3-carboxamide]
Cooling Sensation Score [2, 4]: 26.2 | Cooling Sensation Score [2, 5]: 25.4 | Cooling Sensation Score [2, 6]: 11.3 | Cooling Sensation Score [2, 7]: 0 | Cooling Sensation Score [2, 8]: 0 | Cooling Sensation Score [2, 9]: 0 | Cooling Sensation Score ([2]; 1000 ppm coolant in paste, rinse Ca+2 271 ppm, 0 min.): 23.8 | Cooling Sensation Score ([2]; 1000 ppm coolant in paste, rinse Ca+2 271 ppm, 5 min.): 21.4 | Cooling Sensation Score ([2]; 1000 ppm coolant in paste, rinse Ca+2 271 ppm, 15 min.): 10.8 | Cooling Sensation Score ([2]; 1000 ppm coolant in paste, rinse Ca+2 271 ppm, 30 min.): 2.4 | Cooling Sensation Score ([2]; 1000 ppm coolant in paste, rinse Ca+2 271 ppm, 45 min.): 0 | Cooling Sensation Score ([2]; 1000 ppm coolant in paste, rinse Ca+2 271 ppm, 60 min.): 0 | Cooling Sensation Score ([2]; 1000 ppm coolant in paste, rinse Ca+2 542 ppm, 0 min.): 23.6 | Cooling Sensation Score ([2]; 1000 ppm coolant in paste, rinse Ca+2 542 ppm, 5 min.): 14.0 | Cooling Sensation Score ([2]; 1000 ppm coolant in paste, rinse Ca+2 542 ppm, 15 min.): 0 | Cooling Sensation Score ([2]; 1000 ppm coolant in paste, rinse Ca+2 542 ppm, 30 min.): 0 | Cooling Sensation Score ([2]; 1000 ppm coolant in paste, rinse Ca+2 542 ppm, 45 min.): 0 | Cooling Sensation Score ([2]; 1000 ppm coolant in paste, rinse Ca+2 542 ppm, 60 min.): 0 | Cooling Sensation Score ([2]; 1500 ppm coolant in paste, rinse Ca+2 0 ppm, 0 min.): 18.1 | Cooling Sensation Score ([2]; 1500 ppm coolant in paste, rinse Ca+2 0 ppm, 5 min.): 29.4 | Cooling Sensation Score ([2]; 1500 ppm coolant in paste, rinse Ca+2 0 ppm, 15 min.): 12.7 | Cooling Sensation Score ([2]; 1500 ppm coolant in paste, rinse Ca+2 0 ppm, 30 min.): 0 | Cooling Sensation Score ([2]; 1500 ppm coolant in paste, rinse Ca+2 0 ppm, 45 min.): 0 | Cooling Sensation Score ([2]; 1500 ppm coolant in paste, rinse Ca+2 0 ppm, 60 min.): 0 | Cooling Sensation Score ([2]; 1500 ppm coolant in paste, rinse Ca+2 271 ppm, 0 min.): 20.0 | Cooling Sensation Score ([2]; 1500 ppm coolant in paste, rinse Ca+2 271 ppm, 5 min.): 29.8 | Cooling Sensation Score ([2]; 1500 ppm coolant in paste, rinse Ca+2 271 ppm, 15 min.): 9.5 | Cooling Sensation Score ([2]; 1500 ppm coolant in paste, rinse Ca+2 271 ppm, 30 min.): 1.1 | Cooling Sensation Score ([2]; 1500 ppm coolant in paste, rinse Ca+2 271 ppm, 45 min.): 0 | Cooling Sensation Score ([2]; 1500 ppm coolant in paste, rinse Ca+2 271 ppm, 60 min.): 0 | Cooling Sensation Score ([2]; 1500 ppm coolant in paste, rinse Ca+2 542 ppm, 0 min.): 19.3 | Cooling Sensation Score ([2]; 1500 ppm coolant in paste, rinse Ca+2 542 ppm, 5 min.): 23.7 | Cooling Sensation Score ([2]; 1500 ppm coolant in paste, rinse Ca+2 542 ppm, 15 min.): 5.0 | Cooling Sensation Score ([2]; 1500 ppm coolant in paste, rinse Ca+2 542 ppm, 30 min.): 2.7 | Cooling Sensation Score ([2]; 1500 ppm coolant in paste, rinse Ca+2 542 ppm, 45 min.): 0 | Cooling Sensation Score ([2]; 1500 ppm coolant in paste, rinse Ca+2 542 ppm, 60 min.): 0

% Change from G-180 value [1]: 5.10% | Average Fluorescence (n = 3) [1, 3]: 18404.83
Structure (SMILES): CCCCCCCCCCCCOP(=O)([O-])[O-].[Na+].[Na+] [Sodium lauryl phosphate]

Structure (SMILES): CCOC(=O)CNC(=O)C1CC(C)CCC1C(C)C (stereo not drawn) [WS-5, N-ethoxycarbonylmethyl-ρ-menthan-3-carboxamide]
Cooling Sensation Score ([2]; 800 ppm coolant in paste, rinse Ca+2 0 ppm, 0 min.): 29.2 | Cooling Sensation Score ([2]; 800 ppm coolant in paste, rinse Ca+2 0 ppm, 5 min.): 22.4 | Cooling Sensation Score ([2]; 800 ppm coolant in paste, rinse Ca+2 0 ppm, 15 min.): 8.3 | Cooling Sensation Score ([2]; 800 ppm coolant in paste, rinse Ca+2 0 ppm, 30 min.): 1.0 | Cooling Sensation Score ([2]; 800 ppm coolant in paste, rinse Ca+2 0 ppm, 45 min.): 0 | Cooling Sensation Score ([2]; 800 ppm coolant in paste, rinse Ca+2 0 ppm, 60 min.): 0 | Cooling Sensation Score ([2]; 800 ppm coolant in paste, rinse Ca+2 723 ppm, 0 min.): 30.8 | Cooling Sensation Score ([2]; 800 ppm coolant in paste, rinse Ca+2 723 ppm, 5 min.): 22.2 | Cooling Sensation Score ([2]; 800 ppm coolant in paste, rinse Ca+2 723 ppm, 15 min.): 8.4 | Cooling Sensation Score ([2]; 800 ppm coolant in paste, rinse Ca+2 723 ppm, 30 min.): 2.2 | Cooling Sensation Score ([2]; 800 ppm coolant in paste, rinse Ca+2 723 ppm, 45 min.): 0 | Cooling Sensation Score ([2]; 800 ppm coolant in paste, rinse Ca+2 723 ppm, 60 min.): 0

% Change from G-180 value [1]: 0.66% | Average Fluorescence (n = 3) [1, 3]: 17628.02
Structure (SMILES): O=P([O-])([O-])OP(=O)([O-])OP(=O)([O-])[O-].[Na+].[Na+].[Na+].[Na+].[Na+] [Penta sodium triphosphate]

% Change from G-180 value [1]: 5.69% | Average Fluorescence (n = 3) [1, 3]: 18508.43
Structure (SMILES): O=P(O)(O)OP(=O)(O)OP(=O)(O)O [Sodium tripolyphosphate]

Structure (SMILES): CC1CCC(C(C)C)C(OC(=O)C(C)O)C1 (stereo not drawn) [Menthyl Lactate, menthyl lactate]
Cooling Sensation Score [2, 4]: 23.0 | Cooling Sensation Score [2, 5]: 12.7 | Cooling Sensation Score [2, 6]: 2.3 | Cooling Sensation Score [2, 7]: 0 | Cooling Sensation Score [2, 8]: 0 | Cooling Sensation Score [2, 9]: 0 | Cooling Sensation Score ([2]; 1000 ppm coolant in paste, rinse Ca+2 723 ppm, 0 min.): 23.5 | Cooling Sensation Score ([2]; 1000 ppm coolant in paste, rinse Ca+2 723 ppm, 5 min.): 12.4 | Cooling Sensation Score ([2]; 1000 ppm coolant in paste, rinse Ca+2 723 ppm, 15 min.): 2.2 | Cooling Sensation Score ([2]; 1000 ppm coolant in paste, rinse Ca+2 723 ppm, 30 min.): 0 | Cooling Sensation Score ([2]; 1000 ppm coolant in paste, rinse Ca+2 723 ppm, 45 min.): 0 | Cooling Sensation Score ([2]; 1000 ppm coolant in paste, rinse Ca+2 723 ppm, 60 min.): 0
